Active and inactive are the calls of the source.
Legend:
[1] = target: T1, Coagulation factor XII (Homo sapiens, UniProt P00748); assay type: functional;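 note: activated factor XIIa alpha cleaving a fluorogenic AMC peptide substrate; inhibitor potency from loss of enzyme activity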
T1 sequence (P00748 whole entry): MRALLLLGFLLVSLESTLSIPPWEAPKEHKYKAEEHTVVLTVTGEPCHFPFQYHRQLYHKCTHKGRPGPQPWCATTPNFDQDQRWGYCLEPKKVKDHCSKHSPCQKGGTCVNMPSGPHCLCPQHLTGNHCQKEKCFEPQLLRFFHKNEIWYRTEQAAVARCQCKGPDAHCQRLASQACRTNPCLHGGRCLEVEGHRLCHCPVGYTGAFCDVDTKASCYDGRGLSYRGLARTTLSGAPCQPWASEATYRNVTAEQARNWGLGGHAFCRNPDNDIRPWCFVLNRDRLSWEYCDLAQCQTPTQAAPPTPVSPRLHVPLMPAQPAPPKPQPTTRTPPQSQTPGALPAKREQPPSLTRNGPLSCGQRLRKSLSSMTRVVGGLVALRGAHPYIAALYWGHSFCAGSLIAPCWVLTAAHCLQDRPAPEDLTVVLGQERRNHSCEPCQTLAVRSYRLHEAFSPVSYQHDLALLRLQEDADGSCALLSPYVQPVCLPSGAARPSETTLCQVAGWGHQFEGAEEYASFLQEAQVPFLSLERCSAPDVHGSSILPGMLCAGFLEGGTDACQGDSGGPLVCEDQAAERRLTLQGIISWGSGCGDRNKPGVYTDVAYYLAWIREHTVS

[2] = target: Mu-type opioid receptor (Homo sapiens, UniProt P35372); assay type: functional, cell-based;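 note: U2OS cells with beta-arrestin recruitment to OPRM1 by beta-gal complementation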
[3] = target: 5-hydroxytryptamine receptor 2A (Mus musculus, UniProt P35363); assay type: functional, cell-based;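 note: CHO-K1 cells with tagged receptor and beta-arrestin; agonist potency measured as compound-induced activation of the receptor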
[4] = target: Paired box protein Pax-8 (Homo sapiens, UniProt Q06710); experiment: inhibitors of PAX8-driven TPO luciferase reporter, dose response, RMG-I cells, cherry-pick (AID 687027); assay type: functional, cell-based;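 note: luciferase reporter driven by Pax8 target thyroperoxidase promoter measured by SteadyGlo luminescence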
[5] = cytotoxicity in OVCAR8 ovarian cancer cells, dose response, PAX8 project, cell-based, plate reader, dry powder samples (AID 743197); assay type: functional; settings: OVCAR-8
[6] = target: T2, Histone-lysine N-methyltransferase NSD2 (Homo sapiens, UniProt O96028); assay type: biochemical
T2 sequence (O96028 whole entry): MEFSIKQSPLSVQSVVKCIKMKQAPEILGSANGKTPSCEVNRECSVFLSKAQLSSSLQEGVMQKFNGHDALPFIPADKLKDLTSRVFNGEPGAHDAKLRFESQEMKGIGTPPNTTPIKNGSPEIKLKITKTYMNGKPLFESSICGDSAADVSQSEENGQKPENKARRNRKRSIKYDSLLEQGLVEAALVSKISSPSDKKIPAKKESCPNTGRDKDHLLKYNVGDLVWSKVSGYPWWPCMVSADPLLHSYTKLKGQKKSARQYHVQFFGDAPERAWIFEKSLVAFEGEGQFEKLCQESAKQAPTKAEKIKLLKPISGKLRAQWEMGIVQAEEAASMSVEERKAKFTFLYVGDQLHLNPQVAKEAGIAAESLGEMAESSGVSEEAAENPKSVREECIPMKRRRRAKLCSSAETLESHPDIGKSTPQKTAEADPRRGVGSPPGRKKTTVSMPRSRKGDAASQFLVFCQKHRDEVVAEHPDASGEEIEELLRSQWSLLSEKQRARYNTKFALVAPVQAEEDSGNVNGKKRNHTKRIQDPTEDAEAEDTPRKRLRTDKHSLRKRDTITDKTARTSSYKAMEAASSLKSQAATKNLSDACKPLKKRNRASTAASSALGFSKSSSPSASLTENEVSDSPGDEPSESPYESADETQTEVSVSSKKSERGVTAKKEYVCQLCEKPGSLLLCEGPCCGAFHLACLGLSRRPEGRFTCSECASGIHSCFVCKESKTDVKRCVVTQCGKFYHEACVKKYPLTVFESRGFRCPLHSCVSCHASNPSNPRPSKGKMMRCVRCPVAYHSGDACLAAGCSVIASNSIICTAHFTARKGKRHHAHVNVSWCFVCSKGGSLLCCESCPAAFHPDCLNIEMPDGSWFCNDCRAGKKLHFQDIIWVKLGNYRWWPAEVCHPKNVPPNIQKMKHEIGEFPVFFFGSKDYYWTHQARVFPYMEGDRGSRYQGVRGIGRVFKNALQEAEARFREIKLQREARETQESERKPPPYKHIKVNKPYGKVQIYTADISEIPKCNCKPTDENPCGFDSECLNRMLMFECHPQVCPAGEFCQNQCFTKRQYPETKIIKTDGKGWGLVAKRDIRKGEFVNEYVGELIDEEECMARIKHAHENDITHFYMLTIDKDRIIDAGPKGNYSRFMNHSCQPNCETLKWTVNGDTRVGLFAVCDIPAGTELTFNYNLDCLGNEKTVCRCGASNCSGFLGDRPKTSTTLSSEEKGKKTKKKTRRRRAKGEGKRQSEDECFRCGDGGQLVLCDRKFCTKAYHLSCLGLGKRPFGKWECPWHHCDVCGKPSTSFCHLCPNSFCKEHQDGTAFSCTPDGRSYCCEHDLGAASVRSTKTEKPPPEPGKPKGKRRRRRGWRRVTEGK

[7] = human group III sPLA2 inhibitors, dose response, biochemical, QFRET, IC50 (AID 743457);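 note: green fluorescence rise as the enzyme cleaves BODIPY PC-A2 in liposomes; potency for inhibition of the enzyme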
[8] = target: Nonstructural protein 1 (Influenza A virus, UniProt Q194T2); assay type: functional, Influenza A virus (A/California/07/2009(H1N1))
[9] = inhibitors of clade B AD8 Env fusion, dose response, cell-based, cherry-pick (AID 652062); assay type: functional;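 note: luciferase signal from cell-cell fusion driven by HIV-1 clade B AD8 Env; potency is for inhibitors of fusion seen as a drop in luminescence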
[10] = ZM109 Env clade C HIV-1 fusion inhibitors, dose response, HeLa effector, CEM target cells, luciferase, cherry-pick (AID 652058); assay type: functional, cell-based
[11] = control 3'UTR Renilla luciferase suppression, dose response, counter-screen for Shn3 inhibitor project, cell-based, Clone20-Shn3RL, cherry-picked (AID 624133); assay type: functional
[12] = Shn3 3'UTR reporter inhibitors, dose response, cell-based, Clone20 osteoblasts, firefly luciferase, cherry-picked (AID 624132); assay type: functional;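 note: firefly luciferase luminescence from reporter carrying the Shn3 3'UTR in osteoblasts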
[13] = HepG2 cell cytotoxicity, dose response, cytotoxicity control for Shn3 inhibitor project, CellTiter-Glo, cherry-picked (AID 624134); assay type: functional, cell-based
[14] = off-target signal loss in HeLa-CEM21 co-culture – HeLa F-luc CTL cells, cherry-picked, counter-screen for HIV-1 Env fusion inhibitor project, dose response (AID 652040); assay type: functional, cell-based;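 note: potency for signal decrease marking cytotoxic or nonspecific inhibition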
[15] = inhibitors of HIV Env-driven cell fusion, dose response, cherry-pick (AID 652057); assay type: functional, cell-based

Chain of Mu-type opioid receptor (P35372 whole entry): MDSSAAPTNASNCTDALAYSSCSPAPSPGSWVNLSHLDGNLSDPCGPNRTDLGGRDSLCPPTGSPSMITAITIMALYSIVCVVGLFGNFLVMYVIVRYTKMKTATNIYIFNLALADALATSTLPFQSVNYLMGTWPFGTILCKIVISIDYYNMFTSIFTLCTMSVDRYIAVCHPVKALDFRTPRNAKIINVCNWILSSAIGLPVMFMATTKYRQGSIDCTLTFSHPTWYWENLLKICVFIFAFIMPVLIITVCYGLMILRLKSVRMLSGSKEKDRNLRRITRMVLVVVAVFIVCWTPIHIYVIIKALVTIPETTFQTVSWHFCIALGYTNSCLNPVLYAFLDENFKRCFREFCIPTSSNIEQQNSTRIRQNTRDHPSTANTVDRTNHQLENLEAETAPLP
Chain of 5-hydroxytryptamine receptor 2A (P35363 whole entry): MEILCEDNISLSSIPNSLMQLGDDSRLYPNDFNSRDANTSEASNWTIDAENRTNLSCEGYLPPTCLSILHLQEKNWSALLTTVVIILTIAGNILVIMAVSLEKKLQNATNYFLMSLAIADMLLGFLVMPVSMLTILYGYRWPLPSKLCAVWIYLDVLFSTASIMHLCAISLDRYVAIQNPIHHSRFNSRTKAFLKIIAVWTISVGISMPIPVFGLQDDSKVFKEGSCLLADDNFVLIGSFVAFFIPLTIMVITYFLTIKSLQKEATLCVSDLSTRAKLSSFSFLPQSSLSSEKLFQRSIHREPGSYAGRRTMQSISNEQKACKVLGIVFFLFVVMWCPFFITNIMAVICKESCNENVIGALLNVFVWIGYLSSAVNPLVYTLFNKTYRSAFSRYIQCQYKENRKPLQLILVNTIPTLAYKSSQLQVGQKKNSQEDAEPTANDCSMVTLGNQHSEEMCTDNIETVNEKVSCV
Chain of Paired box protein Pax-8 (Q06710 whole entry): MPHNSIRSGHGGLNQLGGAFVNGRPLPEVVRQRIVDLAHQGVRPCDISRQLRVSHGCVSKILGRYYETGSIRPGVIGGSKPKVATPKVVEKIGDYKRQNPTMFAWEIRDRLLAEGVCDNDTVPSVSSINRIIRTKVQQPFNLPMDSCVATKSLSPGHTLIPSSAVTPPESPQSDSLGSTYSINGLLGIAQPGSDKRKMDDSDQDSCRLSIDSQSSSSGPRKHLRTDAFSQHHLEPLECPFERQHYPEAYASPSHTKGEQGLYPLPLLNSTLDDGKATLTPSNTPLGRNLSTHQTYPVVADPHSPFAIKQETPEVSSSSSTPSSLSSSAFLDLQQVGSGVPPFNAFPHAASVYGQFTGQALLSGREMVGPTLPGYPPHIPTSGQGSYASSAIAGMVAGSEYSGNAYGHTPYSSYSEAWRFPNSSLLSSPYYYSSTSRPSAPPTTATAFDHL
Chain of Nonstructural protein 1 (Q194T2 whole entry, the tested form may be a part): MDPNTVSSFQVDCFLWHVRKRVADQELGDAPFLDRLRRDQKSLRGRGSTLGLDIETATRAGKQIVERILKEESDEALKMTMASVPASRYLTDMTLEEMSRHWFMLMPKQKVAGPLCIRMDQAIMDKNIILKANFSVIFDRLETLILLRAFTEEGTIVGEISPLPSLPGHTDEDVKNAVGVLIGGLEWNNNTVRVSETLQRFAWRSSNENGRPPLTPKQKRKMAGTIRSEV

CC(=O)N1CCC(N2CCN(c3ccccc3F)CC2)CC1
IC50 [1]: > 50 µM (inactive) | EC50 [2]: 92.4 µM (inactive) | EC50 [3]: 1.16 µM (active)

C[C@H]1CCCCO[C@@H](CN(C)Cc2ccncc2)[C@@H](C)CN([C@@H](C)CO)C(=O)c2cc(NC(=O)Nc3ccc(C(F)(F)F)cc3)ccc2O1
AC50 [4]: 7.3 µM (active) | AC50 [5]: > 70 µM (inactive)

Oc1cc2c(cc1CN1CCN(c3ncccn3)CC1)OCO2
EC50 [2]: 92.5 µM (inactive) | EC50 [3]: 0.106 µM (active)

CN(C1=C(N2CCOCC2)C(=O)c2ccccc2C1=O)c1ccccc1
AC50 [6]: 4.86 µM (active) | IC50 [7]: > 122 µM (inactive) | IC50 [8]: 11.9 µM (active)

O=C(CN1CCN(Cc2ccc(Cl)cc2)C1=O)NCCCN1CCN(c2ccc(F)cc2)CC1
AC50 [9]: 27.3 µM (active) | AC50 [10]: 36 µM (active)

CCOC(=O)N1CCN(C(=O)c2ccc3c(c2)N(Cc2ccc(C)cc2)CCS3)CC1
AC50 [11]: 2.31 µM (active) | AC50 [12]: 6 µM (active) | AC50 [13]: > 70 µM (inactive)

O=C(OCCC12CC3CC(CC(C3)C1)C2)c1ccc(NCc2cc(O)ccc2O)cc1
AC50 [11]: 5.97 µM (active) | AC50 [12]: 1.82 µM (active) | AC50 [13]: 21.7 µM (active)

C[C@@]12C(=O)N(Cc3ccccc3)CC(=O)N1[C@H]1c3ccccc3OC[C@@H]1[C@@H]2c1ccccc1
AC50 [9]: 6.27 µM (active) | AC50 [10]: 1.68 µM (active) | AC50 [14]: 2.27 µM (active) | AC50 [15]: 1.65 µM (active)

CCCCN=C(S)NNC(=O)c1ccc(Br)o1
IC50 [7]: > 122 µM (inactive)
